Measurements reported in patent US9302999B2, “Substituted triazoles as herbicides” (E. I. DU PONT DE NEMOURS AND COMPANY, priority 2012, dated 2016).

Columns and labels:
[1] = tested on: pigweed, palmer (palmer pigweed, Amaranthus palmeri); assay: Test F pre-/postemergence: pigweed, palmer; assay type: in vivo
Method in brief: (§1)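 Preemergence treatment of seeds sown in silt loam soil, and postemergence treatment of plants 2–18 cm tall (1- to 4-leaf stage), with compounds in non-phytotoxic solvent plus surfactant. Greenhouse 14–21 days, then visual rating versus controls on 0–100 scale (100 = complete control).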

[2] = tested on: foxtail, green (green foxtail Setaria viridis); assay: Test F pre-/postemergence: foxtail, green; assay type: in vivo; conditions: Preemergence
Source text: (§2) Seeds of plant species selected from corn (Zea mays), soybean (Glycine max), velvetleaf (Abutilon theophrasti), lambsquarters (Chenopodium album), poinsettia, wild (wild poinsettia, Euphorbia heterophylla), pigweed, palmer (palmer pigweed, Amaranthus palmeri), waterhemp (common waterhemp, Amaranthus rudis), surinam grass (Brachiaria decumbens), crabgrass, Brazil (Brazilian crabgrass, Digitaria horizontalis), panicum, fall (fall panicum Panicum dichotomiflorum), crabgrass, large (large crabgrass, Digitaria sanguinalis), foxtail, giant (giant foxtail, Setaria faberii), foxtail, green (green foxtail Setaria viridis), goosegrass (Eleusine indica), ragweed (common ragweed, Ambrosia elatior), barnyardgrass (Echinochloa crus-galli), sandbur (southern sandbur, Cenchrus echinatus), arrowleaf sida (Sida rhombifolia), ryegrass, Italian (Italian ryegrass, Lolium multiflorum), dayflower, VA (Virginia (VA) dayflower, Commelina virginica), field bindweed (Convolvulus arvensis), cocklebur (common cocklebur, Xanthium strumarium), morningglory (Ipomoea coccinea), nightshade (eastern black nightshade, Solanum ptycanthum), kochia (Kochia scoparia), nutsedge, yellow (yellow nutsedge, Cyperus esculentus), johnsongrass (Sorghum halepense), smartweed (ladysthumb smartweed, Polygonum persicaria), and beggarticks (hairy beggarticks, Bidens pilosa), were planted into a silt loam soil and treated preemergence with test chemicals formulated in a non-phytotoxic solvent mixture which included a surfactant. At the same time, plants selected from these crop and weed species and also pigweed (Amaranthus retroflexus), waterhemp_RES1 (ALS/Triazine resistant common waterhemp, Amaranthus rudis) and waterhemp_RES2 (ALS/HPPD resistant common waterhemp, Amaranthus rudis) were planted in pots containing a planting medium comprising spaghnum peat moss, vermiculite, wetting agent and starter nutrients treated with postemergence applications of some of the test chemicals formulated in the same manner. Plants ranged in height from 2 to 18 cm for postemergence treatments (1- to 4-leaf stage).
(§3) Treated plants and controls were maintained in a greenhouse for 14 to 21 days, after which time all species were compared to controls and visually evaluated. Plant response ratings, summarized in Table E, are based on a scale of 0 to 100 where 0 is no effect and 100 is complete control. A dash (-) response means no test result.

[3] = tested on: ragweed (common ragweed, Ambrosia elatior); assay: Test F pre-/postemergence: ragweed; assay type: in vivo; conditions: Preemergence
Source text: as §2, §3

[4] = tested on: barnyardgrass (Echinochloa crus-galli); assay: Test F pre-/postemergence: barnyardgrass; assay type: in vivo
Method in brief: as §1

[5] = tested on: Oilseed Rape; assay: Test C preemergence: oilseed rape; assay type: in vivo; conditions: scale of 0 to 100, 0 is no effect, 100 is complete control
[6] = tested on: Waterhemp; assay: Test C preemergence: waterhemp; assay type: in vivo, Amaranthus rudis; conditions: 125 g ai/ha, scale 0 to 100, 0 no effect, 100 complete control
[7] = Postemergence, 4 g ai/ha, scale 0 to 100
[8] = Postemergence, 8 g ai/ha, scale 0 to 100
[9] = Postemergence, 16 g ai/ha, scale 0 to 100
[10] = Postemergence, 31 g ai/ha, scale 0 to 100
[11] = Postemergence, 62 g ai/ha, scale 0 to 100
[12] = Preemergence, 4 g ai/ha, scale 0 to 100, 0 no effect, 100 complete control
[13] = Preemergence, 8 g ai/ha, scale 0 to 100, 0 no effect, 100 complete control
[14] = Preemergence, 16 g ai/ha, scale 0 to 100 (0 no effect, 100 complete control)
[15] = Preemergence, 31 g ai/ha, scale 0 to 100 (0 no effect, 100 complete control)
[16] = 4 g ai/ha, scale 0 to 100, 0 no effect, 100 complete control
[17] = 8 g ai/ha, scale 0 to 100, 0 no effect, 100 complete control
[18] = 16 g ai/ha, scale 0 to 100 (0 no effect, 100 complete control)
[19] = 31 g ai/ha, scale 0 to 100 (0 no effect, 100 complete control)

Q: With `Cc1nn(-c2ccc(C(F)(F)F)c(F)c2)nc1Cc1ccnc(C(F)(F)F)c1` [Compound 162] as the compound, how does the “Plant response rating, Pigweed, Palmer” value [1, 7] read?
A: Its value is 70.

Q: And the “Plant response rating, Pigweed, Palmer” value [1, 8]?
A: The value was 70.

Q: What about the “Plant response rating, Pigweed, Palmer” value [1, 9] of the same compound?
A: Its value is 80.

Q: What about the “Plant response rating, Pigweed, Palmer” value [1, 10] of the same compound?
A: The value was 90.

Q: And the “Plant response rating, Pigweed, Palmer” value [1, 11]?
A: The value was 90.

Q: What about the “Plant response rating, Pigweed, Palmer” value [1, 12] of the same compound?
A: The value was 0.

Q: And the “Plant response rating, Pigweed, Palmer” value [1, 13]?
A: Its value is 25.

Q: And the “Plant response rating, Pigweed, Palmer” value [1, 14]?
A: The value was 98.

Q: What about the “Plant response rating, Pigweed, Palmer” value [1, 15] of the same compound?
A: The value was 100.

Q: What about the “Plant response rating, Foxtail, Green” value [2, 16] of the same compound?
A: Its value is 0.

Q: What about the “Plant response rating, Foxtail, Green” value [2, 17] of the same compound?
A: Its value is 15.

Q: And the “Plant response rating, Foxtail, Green” value [2, 18]?
A: Its value is 80.

Q: And the “Plant response rating, Foxtail, Green” value [2, 19]?
A: The value was 100.

Q: What about the “Plant response rating, Foxtail, Green” value ([2]; 62 g ai/ha, scale 0 to 100) of the same compound?
A: The value was 100.

Q: What about the “Plant response rating, Ragweed” value [3, 16] of the same compound?
A: Its value is 0.

Q: And the “Plant response rating, Ragweed” value [3, 17]?
A: The value was 0.

Q: And the “Plant response rating, Ragweed” value [3, 18]?
A: Its value is 0.

Q: And the “Plant response rating, Ragweed” value [3, 19]?
A: Its value is 70.

Q: And the “Plant response rating, Barnyardgrass” value [4, 7]?
A: Its value is 10.

Q: What about the “Plant response rating, Barnyardgrass” value [4, 8] of the same compound?
A: The value was 10.

Q: And the “Plant response rating, Barnyardgrass” value [4, 9]?
A: The value was 10.

Q: What about the “Plant response rating, Barnyardgrass” value [4, 10] of the same compound?
A: The value was 25.

Q: And the “Plant response rating, Barnyardgrass” value [4, 11]?
A: Its value is 35.

Q: And the “Plant response rating, Barnyardgrass” value [4, 12]?
A: The value was 0.

Q: And the “Plant response rating, Barnyardgrass” value [4, 13]?
A: The value was 20.

Q: And the “Plant response rating, Barnyardgrass” value [4, 14]?
A: The value was 20.

Q: What about the “Plant response rating, Barnyardgrass” value [4, 15] of the same compound?
A: The value was 30.

Q: And the “Plant response rating, Barnyardgrass” value ([4]; Preemergence, 62 g ai/ha, scale 0 to 100)?
A: The value was 30.

Q: What about the “Plant response rating, Oilseed Rape” value ([5]; 31 g ai/ha) of the same compound?
A: The value was 80.

Q: And the “Plant response rating, Oilseed Rape” value ([5]; 62 g ai/ha)?
A: The value was 100.

Q: What about the “Plant response rating, Waterhemp” value [6] of the same compound?
A: The value was 100.
